From patent publication US20200113852A1, “METHODS OF PATIENT SELECTION AND TREATING TRXR- OR PRDX-OVEREXPRESSED CANCERS” (TRIACT THERAPEUTICS, INC., priority 2017, published 2020) come the findings set out here.

Test [1] has as its target T1, Prdx1 (Homo sapiens, UniProt Q06830).
T1 construct: endogenous in cells; host or cells: HCT116 (GSH-depleted with BSO)
The test is described as follows: Monomeric avidin pull-down and Prdx1 immunoprecipitation, identification of Prdx1 modification. It is filed as cell-based. Conditions: GSH-depleted HCT116, 100 μM, 4 h. As for the experimental part: After separation by SDS-PAGE under reducing conditions and PageBlue® protein staining (Thermo scientific), bands of interest were excised, reduced with DTT, alkylated with iodoacetamide and in-gel digested with trypsin (Promega). Peptides were extracted with acetonitrile 50% in 0.2% formic acid and analyzed by Nano LC-MS/MS after partial evaporation in a speed-vac concentrator. LC-MS/MS experiments were performed on an NanoAcquity UPLC (Waters) coupled to a hybrid LTQ Orbitrap Velos mass spectrometer (Thermo Fisher Scientific) equipped with a nanoelectrospray source. Tryptic digests were loaded onto a nanoAcquity UPLC Trap column (Symmetry C18, 5 μm, 180 μm×20 mm, Waters) and washed with 0.2% formic acid at 20 μL/min for 5 min. Peptides were then eluted on a C18 reverse-phase nanoAcquity column (BEH130 C18, 1.7 μm, 75 μm×250 mm, Waters) with a linear gradient of 7-30% solvent B (H2O/CH3CN/HCOOH, 10:90:0.2, by vol.) for 85 min, 30-90% solvent B for 10 min, and 90% solvent B for 5 min, at a flow rate of 250 nL/min.
The mass spectrometer was operated in the data-dependent mode to automatically switch between MS and MS/MS acquisition. […] The exact parent mass is the ^12C isotope ion mass of the most intense isotopic pattern detected on the high resolution Orbitrap MS parallel scan and included in the MS/MS selection window. […]

Test [2] deals with T2, TrxR in HCT116 cells (Homo sapiens, UniProt Q16881).
T2 sequence (Q16881 1-649): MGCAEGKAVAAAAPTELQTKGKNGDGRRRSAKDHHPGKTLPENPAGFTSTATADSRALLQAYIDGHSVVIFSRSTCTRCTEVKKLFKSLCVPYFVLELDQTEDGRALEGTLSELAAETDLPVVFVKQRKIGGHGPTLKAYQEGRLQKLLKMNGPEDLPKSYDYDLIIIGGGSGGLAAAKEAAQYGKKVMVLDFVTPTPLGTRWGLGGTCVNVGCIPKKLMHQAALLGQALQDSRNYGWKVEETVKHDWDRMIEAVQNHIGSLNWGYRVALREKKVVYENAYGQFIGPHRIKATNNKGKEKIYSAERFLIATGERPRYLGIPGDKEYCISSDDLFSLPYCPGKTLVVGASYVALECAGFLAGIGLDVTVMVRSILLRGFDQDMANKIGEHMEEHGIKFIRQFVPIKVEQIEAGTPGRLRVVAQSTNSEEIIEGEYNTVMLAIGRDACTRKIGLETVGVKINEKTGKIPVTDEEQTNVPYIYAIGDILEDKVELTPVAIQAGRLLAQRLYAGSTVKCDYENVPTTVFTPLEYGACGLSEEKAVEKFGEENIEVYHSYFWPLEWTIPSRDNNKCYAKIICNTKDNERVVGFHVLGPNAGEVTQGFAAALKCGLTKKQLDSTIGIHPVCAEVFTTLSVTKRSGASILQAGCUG
The test is described as follows: Endogenous TrxR activity in cell lysates (DTNB reduction assay). It is filed as cell-based.

For test [3], the target named is T3, recombinant human GAPDH (Homo sapiens, UniProt P04406).
T3 construct: purchased Acris
T3 sequence (P04406 whole entry): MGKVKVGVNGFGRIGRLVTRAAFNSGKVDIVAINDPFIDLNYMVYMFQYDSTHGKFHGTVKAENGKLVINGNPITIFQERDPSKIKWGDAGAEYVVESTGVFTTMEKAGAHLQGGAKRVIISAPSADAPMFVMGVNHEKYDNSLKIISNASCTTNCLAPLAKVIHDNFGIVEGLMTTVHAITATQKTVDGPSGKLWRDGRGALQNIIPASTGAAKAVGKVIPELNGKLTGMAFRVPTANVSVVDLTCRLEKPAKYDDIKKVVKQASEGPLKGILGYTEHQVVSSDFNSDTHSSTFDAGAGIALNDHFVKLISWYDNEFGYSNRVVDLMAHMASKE
The test is described as follows: In vitro modification of GAPDH by Iniparib and I-NOBA. Format: binding. As for the experimental part:
For biochemical analysis, recombinant human GAPDH (Acris) was first reduced by a 15,000-fold excess of DTT at 56° C. for 30 min, the reducing agent being removed thereafter by chloroform/methanol precipitation. […] Afterwards the samples were submitted or not to another reducing step with 25 mM DTT (56° C., 30 min), and after removal of DTT by chloroform/methanol precipitation, biotinylation of free cysteine sulfhydryl groups of GAPDH was performed with HPDP-biotin (N-[6-(Biotinamido)hexyl]-3′-(2′-pyridyldithio)propionamide) at […] for 2 h at 20° C.
Sample mixtures were then reduced or not with 25 mM DTT (56° C., 30 min). Intact molecular weights were measured by mass spectrometry. Liquid chromatography-electrospray ionization mass spectrometry (LC/MS) was carried out using LTQ-Orbitrap Elite mass spectrometer (Thermo Fisher Scientific) coupled to a Famos Autosampler and an Ultimate Pump (LC-Packing, Dionex). Reverse phase chromatography was performed with a binary buffer system consisting of 0.2% formic acid (buffer A) and 80% acetonitrile in 0.2% formic acid (buffer B). After dilution to 1 pmole/μl in 0.2% formic acid, 1 μl of samples were loaded on a Poros 1 R/H column (75 μm×15 cm, Dionex). […] Mass spectra (m/z 500-2,000) were acquired in the positive ITMS mode with 5 μscans accumulation, a target value of 30,000 and a maximum injection time of 100 ms. The acquired raw files were converted in MassLynx format (Waters) using an home-made program and then were deconvoluted using MaxEnt software (Waters).

The mark [4] stands for this setting: HCT-116, read-out: inhibition of TrxR reductase activity, 100 μM, 4 h, BSO-pretreated HCT116.
[5] abbreviates: HCT-116, read-out: inhibition of TrxR reductase activity, 100 μM, first 2 h of incubation, BSO-pretreated HCT116.

For orientation: inhibition means the percentage by which the read-out fell short of the control.

Like-named read-outs stand apart in the source and are kept apart here.

T1 sequence (Q06830 2-199 limits assumed): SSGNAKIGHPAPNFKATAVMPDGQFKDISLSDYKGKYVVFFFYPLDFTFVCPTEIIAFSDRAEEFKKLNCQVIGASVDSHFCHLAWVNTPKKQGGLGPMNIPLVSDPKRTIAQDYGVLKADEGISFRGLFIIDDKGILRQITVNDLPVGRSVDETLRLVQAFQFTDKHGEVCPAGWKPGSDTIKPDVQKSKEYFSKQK

Turning to `NC(=O)c1ccc(I)c([N+](=O)[O-])c1` [Iniparib, 4-iodo-3-nitrobenzamide], the “Prdx1 modification after in-cell bio activation” value in test [1] is on record as “modifies Cys173”. Moreover, the inhibition at 100 µM in test [2] (setting [4]) is around 100%; in test [2] (setting [5]) it was above 90%. For the same molecule, the “covalent modification of GAPDH (MS analysis)” value in test [3] (purified GAPDH incubated with compound) is listed as “not able to covalently modify the protein”. For the same molecule, in test [3] (purified GAPDH, biotin-HPDP labeling, streptavidin-HRP blot), the “blocking of free thiol groups in GAPDH” value was “ineffective”.

For the molecule `O=C(CCCC[C@@H]1SC[C@@H]2NC(=O)N[C@@H]21)NCCNC(=O)c1ccc(I)c([N+](=O)[O-])c1` [Iniparib-biotin, 4-iodo-3-nitro-N-(2-(5-((3 aS,4S,6aR)-2-oxohexahydro-1H-thieno[3,4-d]imidazol-4-yl)pentanamido)ethyl)benzamide], the “Prdx1 modification after in-cell bio activation” value in test [1] was “modifies Cys173”. The inhibition at 100 µM in test [2] (setting [4]) is around 100%; in test [2] (setting [5]), above 90%. The “modification of free thiol groups in purified GAPDH” value in test [3] is “did not modify free thiol groups”.
